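A five-concentration, 48-hour dose response in 96-well plates underlies each endpoint, interpolated linearly between surrounding concentrations. GI50 is the concentration that inhibits growth by half.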 Activity calls are given as the source filed them. No stated cut-off is given here; in the data, active = GI50 up to about 1.1 µM and inactive = higher.
Experiments:
Assay in all cases: NCI tumour cell line growth inhibition, 48 h
[1] = system: CAKI-1
[2] = system: NCI-H522
[3] = system: UACC-62
[4] = system: SR
[5] = system: HCC 2998
[6] = system: SNB-19
[7] = system: ACHN
[8] = system: MOLT-4
[9] = system: HOP-62
[10] = system: PC-3
[11] = system: SF-295
[12] = system: HCT-15
[13] = system: UACC-257
[14] = system: M14
[15] = system: SN12C
[16] = system: NCI-H226
[17] = system: Malme-3M
[18] = system: NCI/ADR-RES
[19] = system: UO-31
[20] = system: HT-29

Row | SMILES | GI50 [1] | GI50 [2] | GI50 [3] | GI50 [4] | GI50 [5] | GI50 [6] | GI50 [7] | GI50 [8] | GI50 [9] | GI50 [10] | GI50 [11] | GI50 [12] | GI50 [13] | GI50 [14] | GI50 [15] | GI50 [16] | GI50 [17] | GI50 [18] | GI50 [19] | GI50 [20]
1 | C=C1CCc2ccccc2C1=O | > 100 µM (inactive) | > 100 µM (inactive) | > 100 µM (inactive) | 19.2 µM (inactive) | > 100 µM (inactive) | > 100 µM (inactive) | > 100 µM (inactive) | 64.7 µM (inactive) | > 100 µM (inactive) | > 100 µM (inactive) | 51.3 µM (inactive) | > 100 µM | > 100 µM (inactive) | > 100 µM (inactive) | > 100 µM (inactive) | > 100 µM (inactive) | > 100 µM (inactive) | > 100 µM (inactive) | > 100 µM (inactive) | 47.2 µM (inactive)
2 | CC(=O)c1sc2[n+](c1C)C(=O)/C(=C\c1ccccc1Cl)S2 | 24.5 µM (inactive) | 18.2 µM (inactive) | 13.1 µM (inactive) | 18.3 µM (inactive) | 20 µM (inactive) | 20.3 µM (inactive) | 20.5 µM (inactive) | 22.4 µM (inactive) | 22.8 µM (inactive) | 22.5 µM (inactive) | 16 µM (inactive) | 14.1 µM | 19.4 µM (inactive) | 18.6 µM (inactive) | 34.2 µM (inactive) | 13.3 µM (inactive) | 17.5 µM (inactive) | 21 µM (inactive) | 19.3 µM (inactive) | 20.6 µM (inactive)
3 | COc1c(O)cc2c(c1O)C(=O)C1=C(CCCC1)C2=O | 27.5 µM (inactive) | 13 µM (inactive) | 20.3 µM (inactive) | 10.8 µM (inactive) | 21.9 µM (inactive) | 31.5 µM (inactive) | 23 µM (inactive) | 4.8 µM (inactive) | 33.4 µM (inactive) | 22.8 µM (inactive) | 25.2 µM (inactive) | 26.1 µM | 34 µM (inactive) | 34.8 µM (inactive) | 20.6 µM (inactive) | 30.5 µM (inactive) | 25.8 µM (inactive) | 17.3 µM (inactive) | 7.24 µM (inactive) | 21.7 µM (inactive)
4 | N=C(CC/C(N)=N/O)NO | > 100 µM (inactive) | > 100 µM (inactive) | > 100 µM (inactive) | > 100 µM (inactive) | > 100 µM (inactive) | > 100 µM (inactive) | > 100 µM (inactive) | > 100 µM (inactive) | > 100 µM (inactive) | > 100 µM (inactive) | > 100 µM (inactive) | > 100 µM | > 100 µM (inactive) | 38.7 µM (inactive) | > 100 µM (inactive) | > 100 µM (inactive) | > 100 µM (inactive) | > 100 µM (inactive) | > 100 µM (inactive) | > 100 µM (inactive)
5 | CC1=CC(=O)c2c(O)cccc2C1=O [PLUMBAGIN] | 1.83 µM (inactive) | 1.57 µM (inactive) | 1.94 µM (inactive) | 1.69 µM (inactive) | 2.07 µM (inactive) | 12 µM (inactive) | 1.6 µM (inactive) | 0.236 µM (active) | 5.52 µM (inactive) | 2.21 µM (inactive) | 11.5 µM (inactive) | 1.7 µM | 1.81 µM (inactive) | 1.86 µM (inactive) | 1.94 µM (inactive) | 6.55 µM (inactive) | 0.966 µM (active) | 1.76 µM (inactive) | 1.61 µM (inactive) | 1.89 µM (inactive)
6 | CC(C)C[C@H](NC(=O)[C@H](Cc1ccccc1)NC(=O)CCc1ccccc1)B(O)O | < 0.01 µM (active) | < 0.01 µM (active) | < 0.01 µM (active) | < 0.01 µM (active) | < 0.01 µM (active) | < 0.01 µM (active) | < 0.01 µM (active) | < 0.01 µM (active) | < 0.01 µM (active) | < 0.01 µM (active) | < 0.01 µM (active) | < 0.01 µM | < 0.01 µM (active) | < 0.01 µM (active) | < 0.01 µM (active) | < 0.01 µM (active) | < 0.01 µM (active) | 0.011 µM (active) | < 0.01 µM (active) | < 0.01 µM (active)
7 | Cc1[nH]c2ccccc2c1-c1cc(-c2cc(-c3c(C)[nH]c4ccccc34)on2)no1 | 76.2 µM (inactive) | 34.3 µM (inactive) | 51.4 µM (inactive) | 38.8 µM (inactive) | 61 µM (inactive) | > 100 µM (inactive) | > 100 µM (inactive) | > 100 µM (inactive) | 85.9 µM (inactive) | 63 µM (inactive) | 40.2 µM (inactive) | 57.1 µM | 43.1 µM (inactive) | 37.7 µM (inactive) | > 100 µM (inactive) | 98.4 µM (inactive) | 63.7 µM (inactive) | > 100 µM (inactive) | 46.6 µM (inactive) | 42.6 µM (inactive)
8 | N#Cc1c(Nc2ccccc2)[n+]([O-])c2ccc(Cl)cc2[n+]1[O-] | 5.09 µM (inactive) | 2.16 µM (inactive) | 3.71 µM (inactive) | 3.16 µM (inactive) | 4.06 µM (inactive) | 5.51 µM (inactive) | 2.85 µM (inactive) | 3.65 µM (inactive) | 7.67 µM (inactive) | 3.36 µM (inactive) | 4.52 µM (inactive) | 1.89 µM | 7.28 µM (inactive) | 7.57 µM (inactive) | 4.49 µM (inactive) | 4.67 µM (inactive) | 7.59 µM (inactive) | 2.7 µM (inactive) | 2.89 µM (inactive) | 3.05 µM (inactive)
9 | Nc1nc(Cl)cc(NCC2(O)CC(CO)C2)n1 (stereo unspecified) | > 100 µM (inactive) | > 100 µM (inactive) | > 100 µM (inactive) | > 100 µM (inactive) | > 100 µM (inactive) | > 100 µM (inactive) | > 100 µM (inactive) | > 100 µM (inactive) | > 100 µM (inactive) | > 100 µM (inactive) | > 100 µM (inactive) | > 100 µM | > 100 µM (inactive) | – | > 100 µM (inactive) | > 100 µM (inactive) | > 100 µM (inactive) | > 100 µM (inactive) | > 100 µM (inactive) | > 100 µM (inactive)
10 | OC(Cc1ccc2ccccc2n1)(C(F)(F)Cl)C(F)(F)Cl | > 10 µM (inactive) | > 10 µM (inactive) | > 10 µM (inactive) | > 10 µM (inactive) | > 10 µM (inactive) | > 10 µM (inactive) | > 10 µM (inactive) | > 10 µM (inactive) | > 10 µM (inactive) | > 10 µM (inactive) | > 10 µM (inactive) | > 10 µM | > 10 µM (inactive) | > 10 µM (inactive) | > 10 µM (inactive) | > 10 µM (inactive) | > 10 µM (inactive) | > 10 µM (inactive) | > 10 µM (inactive) | > 10 µM (inactive)
11 | COc1cc2oc(=O)cc(C)c2cc1[N+](=O)[O-] | 13.8 µM (inactive) | 11.6 µM (inactive) | 16.1 µM (inactive) | 13 µM (inactive) | 14.6 µM (inactive) | > 83.6 µM (inactive) | 28.1 µM (inactive) | 13.7 µM (inactive) | 41.6 µM (inactive) | 27.9 µM (inactive) | 51.4 µM (inactive) | 17.7 µM | 16.3 µM (inactive) | 16.7 µM (inactive) | 16.4 µM (inactive) | 8.77 µM (inactive) | 20.1 µM (inactive) | 28.4 µM (inactive) | 34.4 µM (inactive) | 23.1 µM (inactive)
12 | C[C@]12CC[C@@H]3c4ccc(OC(=O)c5ccccc5)cc4CC[C@H]3[C@@H]1CC[C@@H]2Oc1c2ccccc2nc2ccccc12 | 9.73 µM (inactive) | 8.15 µM (inactive) | 17.7 µM (inactive) | 10 µM (inactive) | 7.05 µM (inactive) | 7.45 µM (inactive) | 37 µM (inactive) | 8.87 µM (inactive) | 8.17 µM (inactive) | 8.93 µM (inactive) | 16 µM (inactive) | 9.73 µM | 13.6 µM (inactive) | 7.43 µM (inactive) | – | 14.9 µM (inactive) | 7.94 µM (inactive) | 11.4 µM (inactive) | 13.2 µM (inactive) | 5.83 µM (inactive)
13 | CCO[C@@H]1CCC([S+]([O-])c2ccc(C)cc2)=CO1 (stereo partly specified) | > 100 µM (inactive) | > 100 µM (inactive) | > 100 µM (inactive) | 60.7 µM (inactive) | > 100 µM (inactive) | > 100 µM (inactive) | > 100 µM (inactive) | 52.1 µM (inactive) | > 100 µM (inactive) | > 100 µM (inactive) | > 100 µM (inactive) | > 100 µM | > 100 µM (inactive) | – | > 100 µM (inactive) | > 100 µM (inactive) | > 100 µM (inactive) | > 100 µM (inactive) | > 100 µM (inactive) | > 100 µM (inactive)
14 | [O-][S+](c1ccccc1)C1CC2CC3(CCC21O)OCCO3 (stereo unspecified) | > 100 µM (inactive) | > 100 µM (inactive) | > 100 µM (inactive) | > 100 µM (inactive) | > 100 µM (inactive) | > 100 µM (inactive) | > 100 µM (inactive) | > 100 µM (inactive) | > 100 µM (inactive) | > 100 µM (inactive) | > 100 µM (inactive) | > 100 µM | > 100 µM (inactive) | > 100 µM (inactive) | – | > 100 µM (inactive) | > 100 µM (inactive) | > 100 µM (inactive) | > 100 µM (inactive) | > 100 µM (inactive)

Reference: ChEMBL document CHEMBL1201862, “PubChem BioAssay data set” (2004)
